How the values were obtained:
green foxtail [1] = assay: Test Example 5: herbicidal effect by foliage application, plastic box (Table 20, symbol G); assay type: in vivo, green foxtail (Setaria viridis); settings: foliage application, 320 g/ha, three weeks after application
Procedure, shortened: (§1)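 Post-emergence foliar test in sterilized diluvial soil. Compound applied as water-diluted emulsion at a predetermined rate to 14-day-old plants; evaluation at three weeks.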

Japanese bulrush = assay: Test Example 1: herbicidal activity, application before weed generation under submerged conditions (Table 16, symbol B); assay type: in vivo, Japanese bulrush (Schoenoplectus juncoides); settings: amount of applied herbicide 320 g/ha
Procedure, shortened: (§2)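 Submerged Wagner pots (alluvial soil, 4 cm water) sown with weed seeds and planted with 2.5-leaf rice seedlings; emulsifiable concentrate diluted in water applied to water surface on sowing day. Held in greenhouse at 25-30 °C; injury scored 0-5 by herbicidal rate after three weeks.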

chickweed [2] = assay: Test Example 4: herbicidal effect by soil treatment (Table 19, symbol P); assay type: in vivo, common chickweed (Stellaria media); settings: amount of applied herbicide 320 g/ha
Procedure, shortened: (§3)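 Scoring uses the grading scale of an earlier test, three weeks post-application. Treatment consists of spraying a diluted emulsion formulation across the surface of sterilized diluvial soil in which seeds are buried near 1.5 cm deep; boxes are kept in a greenhouse between 25° C. and 30° C.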

velvetleaf [3] = assay: Test Example 4: herbicidal effect by soil treatment (Table 19, symbol M); assay type: in vivo, velvetleaf (Abutilon theophrasti); settings: amount of applied herbicide 320 g/ha
Procedure, shortened: as §3

barnyard grass [4] = assay: Test Example 3: herbicidal effect by foliage application, Wagner pot (Table 18, symbol H); assay type: in vivo, barnyard grass (Echinochloa crus-galli); settings: 320 g/ha
Procedure, shortened: (§4)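 Plants were sown in alluvial soil held under 0.1–0.5 cm standing water and grown 14 days in a greenhouse at 25–30 °C. An emulsifiable formulation, water-diluted to the set dose, was then sprayed onto the foliage, and effects were scored three weeks later using previously defined criteria.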

barnyard grass [5] = assay: Test Example 4: herbicidal effect by soil treatment (Table 19, symbol H); assay type: in vivo, barnyard grass (Echinochloa crus-galli); settings: amount of applied herbicide 320 g/ha
Procedure, shortened: as §3

barnyard grass [6] = assay: Test Example 5: herbicidal effect by foliage application, plastic box (Table 20, symbol H); assay type: in vivo, barnyard grass (Echinochloa crus-galli); settings: foliage application, 320 g/ha, three weeks after application
Procedure, shortened: as §1

green foxtail [7] = assay: Test Example 4: herbicidal effect by soil treatment (Table 19, symbol G); assay type: in vivo, green foxtail (Setaria viridis); settings: amount of applied herbicide 320 g/ha
Procedure, shortened: as §3

wild oat [8] = assay: Test Example 5: herbicidal effect by foliage application, plastic box (Table 20, symbol I); assay type: in vivo, wild oat (Avena fatua); settings: foliage application, 320 g/ha, three weeks after application
Procedure, shortened: as §1

blackgrass [9] = assay: Test Example 5: herbicidal effect by foliage application, plastic box (Table 20, symbol J); assay type: in vivo, blackgrass (Alopecurus myosuroides); settings: foliage application, 320 g/ha, three weeks after application
Procedure, shortened: as §1

lambsquarters [10] = assay: Test Example 5: herbicidal effect by foliage application, plastic box (Table 20, symbol O); assay type: in vivo, lambsquarters (Chenopodium album); settings: foliage application, 320 g/ha, three weeks after application
Procedure, shortened: as §1

persian speedwell [11] = assay: Test Example 5: herbicidal effect by foliage application, plastic box (Table 20, symbol R); assay type: in vivo, Persian speedwell (Veronica persica); settings: foliage application, 320 g/ha, three weeks after application
Procedure, shortened: as §1

windgrass [12] = assay: Test Example 4: herbicidal effect by soil treatment (Table 19, symbol L); assay type: in vivo, windgrass (Apera spica-venti); settings: amount of applied herbicide 320 g/ha
Procedure, shortened: as §3

southern crabgrass [13] = assay: Test Example 5: herbicidal effect by foliage application, plastic box (Table 20, symbol F); assay type: in vivo, southern crabgrass (Digitaria ciliaris); settings: foliage application, 320 g/ha, three weeks after application
Procedure, shortened: as §1

oval-leafed pondweed = assay: Test Example 1: herbicidal activity, application before weed generation under submerged conditions (Table 16, symbol C); assay type: in vivo, oval-leafed pondweed (Monochoria vaginalis); settings: amount of applied herbicide 320 g/ha
Procedure, shortened: as §2

false cleavers [14] = assay: Test Example 5: herbicidal effect by foliage application, plastic box (Table 20, symbol Q); assay type: in vivo, false cleavers (Galium spurium); settings: foliage application, 320 g/ha, three weeks after application
Procedure, shortened: as §1

late watergrass = assay: Test Example 1: herbicidal activity, application before weed generation under submerged conditions (Table 16, symbol A); assay type: in vivo, late watergrass (Echinochloa oryzicola); settings: amount of applied herbicide 320 g/ha
Procedure, shortened: as §2

wild oat [15] = assay: Test Example 4: herbicidal effect by soil treatment (Table 19, symbol I); assay type: in vivo, wild oat (Avena fatua); settings: amount of applied herbicide 320 g/ha
Procedure, shortened: as §3

false cleavers [16] = assay: Test Example 4: herbicidal effect by soil treatment (Table 19, symbol Q); assay type: in vivo, false cleavers (Galium spurium); settings: amount of applied herbicide 320 g/ha
Procedure, shortened: as §3

southern crabgrass [17] = assay: Test Example 4: herbicidal effect by soil treatment (Table 19, symbol F); assay type: in vivo, southern crabgrass (Digitaria ciliaris); settings: amount of applied herbicide 320 g/ha
Procedure, shortened: as §3

windgrass [18] = assay: Test Example 5: herbicidal effect by foliage application, plastic box (Table 20, symbol L); assay type: in vivo, windgrass (Apera spica-venti); settings: foliage application, 320 g/ha, three weeks after application
Procedure, shortened: as §1

persian speedwell [19] = assay: Test Example 4: herbicidal effect by soil treatment (Table 19, symbol R); assay type: in vivo, Persian speedwell (Veronica persica); settings: amount of applied herbicide 320 g/ha
Procedure, shortened: as §3

redroot pigweed [20] = assay: Test Example 4: herbicidal effect by soil treatment (Table 19, symbol N); assay type: in vivo, redroot pigweed (Amaranthus retroflexus); settings: amount of applied herbicide 320 g/ha
Procedure, shortened: as §3

chickweed [21] = assay: Test Example 5: herbicidal effect by foliage application, plastic box (Table 20, symbol P); assay type: in vivo, common chickweed (Stellaria media); settings: foliage application, 320 g/ha, three weeks after application
Procedure, shortened: as §1

blackgrass [22] = assay: Test Example 4: herbicidal effect by soil treatment (Table 19, symbol J); assay type: in vivo, blackgrass (Alopecurus myosuroides); settings: amount of applied herbicide 320 g/ha
Procedure, shortened: as §3

redroot pigweed [23] = assay: Test Example 5: herbicidal effect by foliage application, plastic box (Table 20, symbol N); assay type: in vivo, redroot pigweed (Amaranthus retroflexus); settings: foliage application, 320 g/ha, three weeks after application
Procedure, shortened: as §1

Italian ryegrass [24] = assay: Test Example 5: herbicidal effect by foliage application, plastic box (Table 20, symbol K); assay type: in vivo, Italian ryegrass (Lolium multiflorum); settings: foliage application, 320 g/ha, three weeks after application
Procedure, shortened: as §1

rice flat sedge = assay: Test Example 3: herbicidal effect by foliage application, Wagner pot (Table 18, symbol E); assay type: in vivo, rice flat sedge (Cyperus iria); settings: 320 g/ha
Procedure, shortened: as §4

Italian ryegrass [25] = assay: Test Example 4: herbicidal effect by soil treatment (Table 19, symbol K); assay type: in vivo, Italian ryegrass (Lolium multiflorum); settings: amount of applied herbicide 320 g/ha
Procedure, shortened: as §3

lambsquarters [26] = assay: Test Example 4: herbicidal effect by soil treatment (Table 19, symbol O); assay type: in vivo, lambsquarters (Chenopodium album); settings: amount of applied herbicide 320 g/ha
Procedure, shortened: as §3

velvetleaf [27] = assay: Test Example 5: herbicidal effect by foliage application, plastic box (Table 20, symbol M); assay type: in vivo, velvetleaf (Abutilon theophrasti); settings: foliage application, 320 g/ha, three weeks after application
Procedure, shortened: as §1

Chinese sprangletop = assay: Test Example 3: herbicidal effect by foliage application, Wagner pot (Table 18, symbol D); assay type: in vivo, chinese sprangletop (Leptochloa chinensis); settings: 320 g/ha
Procedure, shortened: as §4

CCCC(=O)Oc1c(C)nn(C)c(=O)c1-c1c(-c2ccc(F)cc2OC)sc2cc(Cl)ccc12 [3-044] was tested, and the “G: green foxtail, herbicidal effect grade” value (green foxtail [1]) was 4 (Herbicidal rate of 70% or more and less than 90%), the “Herbicidal effect, B: Japanese bulrush” value (Japanese bulrush) was 0 (Herbicidal rate of 5% or less (almost no effect)) and the “P: chickweed, herbicidal effect grade” value (chickweed [2]) was 4 (Herbicidal rate of 70% or more and less than 90%). The “M: velvetleaf, herbicidal effect grade” value (velvetleaf [3]) was 2 (Herbicidal rate of 20% or more and less than 40%), the “herbicidal effect on barnyard grass (H)” value (barnyard grass [4]) was 5 (Herbicidal rate of 90% or more (almost completely withered)) and the “H: barnyard grass, herbicidal effect grade” value (barnyard grass [5]) was 3 (Herbicidal rate of 40% or more and less than 70%). The “H: barnyard grass, herbicidal effect grade” value (barnyard grass [6]) was 5 (Herbicidal rate of 90% or more (almost completely withered)), the “G: green foxtail, herbicidal effect grade” value (green foxtail [7]) was 1 (Herbicidal rate of 5% or more and less than 20%) and the “I: wild oat, herbicidal effect grade” value (wild oat [8]) was 4 (Herbicidal rate of 70% or more and less than 90%). For the same compound, the “J: blackgrass, herbicidal effect grade” value (blackgrass [9]) was 5 (Herbicidal rate of 90% or more (almost completely withered)), the “O: lambsquarters, herbicidal effect grade” value (lambsquarters [10]) was 3 (Herbicidal rate of 40% or more and less than 70%) and the “R: persian speedwell, herbicidal effect grade” value (persian speedwell [11]) was 3 (Herbicidal rate of 40% or more and less than 70%). For the same compound, the “L: windgrass, herbicidal effect grade” value (windgrass [12]) was 3 (Herbicidal rate of 40% or more and less than 70%), the “F: southern crabgrass, herbicidal effect grade” value (southern crabgrass [13]) was 3 (Herbicidal rate of 40% or more and less than 70%) and the “Herbicidal effect, C: oval-leafed pondweed” value (oval-leafed pondweed) was 0 (Herbicidal rate of 5% or less (almost no effect)). For the same compound, the “Q: false cleavers, herbicidal effect grade” value (false cleavers [14]) was 4 (Herbicidal rate of 70% or more and less than 90%), the “Herbicidal effect, A: late watergrass” value (late watergrass) was 3 (Herbicidal rate of 40% or more and less than 70%) and the “I: wild oat, herbicidal effect grade” value (wild oat [15]) was 0 (Herbicidal rate of 5% or less (almost no effect)). The “Q: false cleavers, herbicidal effect grade” value (false cleavers [16]) was 4 (Herbicidal rate of 70% or more and less than 90%), the “F: southern crabgrass, herbicidal effect grade” value (southern crabgrass [17]) was 1 (Herbicidal rate of 5% or more and less than 20%) and the “L: windgrass, herbicidal effect grade” value (windgrass [18]) was 5 (Herbicidal rate of 90% or more (almost completely withered)). The “R: persian speedwell, herbicidal effect grade” value (persian speedwell [19]) was 3 (Herbicidal rate of 40% or more and less than 70%), the “N: redroot pigweed, herbicidal effect grade” value (redroot pigweed [20]) was 4 (Herbicidal rate of 70% or more and less than 90%) and the “P: chickweed, herbicidal effect grade” value (chickweed [21]) was 5 (Herbicidal rate of 90% or more (almost completely withered)). The “J: blackgrass, herbicidal effect grade” value (blackgrass [22]) was 0 (Herbicidal rate of 5% or less (almost no effect)), the “N: redroot pigweed, herbicidal effect grade” value (redroot pigweed [23]) was 3 (Herbicidal rate of 40% or more and less than 70%) and the “K: Italian ryegrass, herbicidal effect grade” value (Italian ryegrass [24]) was 0 (Herbicidal rate of 5% or less (almost no effect)). The “herbicidal effect on rice flat sedge (E)” value (rice flat sedge) was 3 (Herbicidal rate of 40% or more and less than 70%), the “K: Italian ryegrass, herbicidal effect grade” value (Italian ryegrass [25]) was 0 (Herbicidal rate of 5% or less (almost no effect)) and the “O: lambsquarters, herbicidal effect grade” value (lambsquarters [26]) was 4 (Herbicidal rate of 70% or more and less than 90%). For the same compound, the “M: velvetleaf, herbicidal effect grade” value (velvetleaf [27]) was 4 (Herbicidal rate of 70% or more and less than 90%) and the “herbicidal effect on Chinese sprangletop (D)” value (Chinese sprangletop) was 0 (Herbicidal rate of 5% or less (almost no effect)).

From patent publication US20230085307A1, “PYRIDAZINONE COMPOUND AND HERBICIDE” (NISSAN CHEMICAL CORPORATION, priority 2019, published 2023)
